# Patent US20250325562A1, “Intravenous Ganaxolone Formulations and Methods of Use in Treating Status Epilepticus and Other Seizure Disorders” (MARINUS PHARMACEUTICALS, INC., priority 2015, published 2025)
# System: pilocarpine induced status epilepticus (SE)
# Experiment: Pilocarpine-induced status epilepticus in rats, cortical EEG power
# Format: in vivo, Male Sprague-Dawley rats
# Set-up: key to Treatment effect on EEG power vs vehicle, significance: * P < 0.05; ** P < 0.01; *** P < 0.001; **** P < 0.0001; ns = not significant
# Conditions: 12 mg/kg IV
# Method: This study was designed to determine the ability of a CAPTISOL-ganaxolone (GNX) formulation administered intravenously (IV) at 12 and 15 mg/kg to inhibit pilocarpine induced status epilepticus (SE). Allopregnanolone (Allo) (15 mg/kg; IV) was also evaluated for comparison. In this study, test drugs were administered either 15 or 60 minutes after onset of SE and compared to vehicle (30% Captisol).
# Cortical EEG activity was recorded in rats before and after administration of pilocarpine to induce SE. Animals were pre-treated with LiCl to enhance and improve reliability of seizure induction and scopolamine to reduce peripheral cholinergic side effects of pilocarpine. EEG activity was recorded for 5 h after SE onset, and anticonvulsant activity was assessed by determining changes in EEG power over frequency ranges from 0.3 to 96 Hz.
# Male Sprague-Dawley rats were used for the studies. Rats were surgically implanted with EEG electrodes and jugular vein catheters. The mean weight at the time of recording was 321+3 g (269-351 g).
# EEG electrodes were surgically implanted in anesthetized rats. Animals were also treated with an anti-inflammatory anaelgesic (RIMADYL, (carprofen)) prior to surgery and a subcutaneous local anesthetic. Stainless steel screw electrodes chronically were implanted in the skull (0-80×¼″, Plastics-One, Roanoke, VA) such that the ends of the screws were flush with the inner skull surface. One electrode was located 3.0 mm anterior to bregma and 2 mm to the left of midline, and the second 4.0 mm posterior to bregma and 2.5 mm to the right of midline. The skull surface around the electrodes was sealed with super glue and dental acrylic, and the EEG electrode lead wires were inserted into a plastic pedestal mounted on the skull using dental acrylic. Wound edges were treated with triple antibiotic cream (bacitracin zinc, neomycin sulfate, polymyxin B sulfate; Walgreens). Following surgery, animals were administered antibiotic (ampicillin, 50 mg/kg IP at 0.4 mL/kg) and also received a chewable dose (˜10 mg) of Rimadyl following surgery. The animals were allowed to recover from EEG surgery for 1 week.
# Rats were implanted with jugular-vein catheters (JVC) one week following EEG surgery. Rats were administered an anti-inflammatory/analgesic and then anesthetized and placed in a supine position. An incision was made in the skin on the right ventrolateral aspect of the neck to expose the external jugular vein which was then dissected free of surrounding fascia. A ligature was tied around the vein anteriorly to occlude blood flow returning to the heart. A second ligature was loosely tied around the vein posteriorly to create tension on the vessel during venotomy and catheter insertion. After incising the vein, a PE catheter (3Fr) was inserted into the vein and advanced approximately 30 mm towards the heart, positioning the tip at the junction of the precava and right atrium. After confirming patency of the catheter by blood withdrawal, the posterior ligature was tied off, and the catheter flushed with a “heparin-lock” solution (5 units heparin/ml saline) and plugged with a sterilized stainless steel pin. The catheter was then exteriorized by tunneling through the subcutaneous tissue to exit posterior to the head between the shoulder blades. Lastly, after suturing the catheter to the skin, all wounds were closed using sutures or wound clips. Immediately following surgery, the animals were awakened to assess catheter patency. Animals also received a chewable dose (˜10 mg) of Rimadyl following surgery to minimize pain and inflammation.
# Animals were allowed a 1-week recovery time following JVC surgery. Jugular vein catheters were flushed daily with a 0.1 mL of heparin solution (5 units/mL) to maintain patency. On the day of surgery, the flushing solution contained ampicillin sulbactam (50 mg/kg). […]
structure (smiles),measurement,setting,value
"CC(=O)[C@H]1CC[C@H]2[C@@H]3CC[C@H]4C[C@](C)(O)CC[C@]4(C)[C@H]3CC[C@]12C [Ganaxolone, 3α-hydroxy, 3β-methyl-5α-pregnan-20-one]","Treatment effect on EEG power vs vehicle, significance","15 min post SE onset, 0-5 Hz, 0-15 min. post drug",**** (**** P < 0.0001)
same,"Treatment effect on EEG power vs vehicle, significance","15 min post SE onset, 0-5 Hz, 1-2 hrs post drug",**** (**** P < 0.0001)
same,"Treatment effect on EEG power vs vehicle, significance","15 min post SE onset, 0-5 Hz, 2-3 hrs post drug",*** (*** P < 0.001)
same,"Treatment effect on EEG power vs vehicle, significance","15 min post SE onset, 0-5 Hz, 3-5 hrs post drug",** (** P < 0.01)
same,"Treatment effect on EEG power vs vehicle, significance","15 min post SE onset, 0-5 Hz, 15-30 min post drug",**** (**** P < 0.0001)
same,"Treatment effect on EEG power vs vehicle, significance","15 min post SE onset, 0-5 Hz, 30-60 min post drug",**** (**** P < 0.0001)
same,"Treatment effect on EEG power vs vehicle, significance","15 min post SE onset, 5-10 Hz, 0-15 min. post drug",**** (**** P < 0.0001)
same,"Treatment effect on EEG power vs vehicle, significance","15 min post SE onset, 5-10 Hz, 1-2 hrs post drug",** (** P < 0.01)
same,"Treatment effect on EEG power vs vehicle, significance","15 min post SE onset, 5-10 Hz, 2-3 hrs post drug",* (* P < 0.05)
same,"Treatment effect on EEG power vs vehicle, significance","15 min post SE onset, 5-10 Hz, 3-5 hrs post drug",ns
same,"Treatment effect on EEG power vs vehicle, significance","15 min post SE onset, 5-10 Hz, 15-30 min post drug",**** (**** P < 0.0001)
same,"Treatment effect on EEG power vs vehicle, significance","15 min post SE onset, 5-10 Hz, 30-60 min post drug",*** (*** P < 0.001)
same,"Treatment effect on EEG power vs vehicle, significance","15 min post SE onset, 10-30 Hz, 0-15 min. post drug",*** (*** P < 0.001)
same,"Treatment effect on EEG power vs vehicle, significance","15 min post SE onset, 10-30 Hz, 1-2 hrs post drug",* (* P < 0.05)
same,"Treatment effect on EEG power vs vehicle, significance","15 min post SE onset, 10-30 Hz, 2-3 hrs post drug",ns
same,"Treatment effect on EEG power vs vehicle, significance","15 min post SE onset, 10-30 Hz, 3-5 hrs post drug",ns
same,"Treatment effect on EEG power vs vehicle, significance","15 min post SE onset, 10-30 Hz, 15-30 min post drug",**** (**** P < 0.0001)
same,"Treatment effect on EEG power vs vehicle, significance","15 min post SE onset, 10-30 Hz, 30-60 min post drug",** (** P < 0.01)
same,"Treatment effect on EEG power vs vehicle, significance","15 min post SE onset, 30-50 Hz, 0-15 min. post drug",*** (*** P < 0.001)
same,"Treatment effect on EEG power vs vehicle, significance","15 min post SE onset, 30-50 Hz, 1-2 hrs post drug",* (* P < 0.05)
same,"Treatment effect on EEG power vs vehicle, significance","15 min post SE onset, 30-50 Hz, 2-3 hrs post drug",ns
same,"Treatment effect on EEG power vs vehicle, significance","15 min post SE onset, 30-50 Hz, 3-5 hrs post drug",ns
same,"Treatment effect on EEG power vs vehicle, significance","15 min post SE onset, 30-50 Hz, 15-30 min post drug",*** (*** P < 0.001)
same,"Treatment effect on EEG power vs vehicle, significance","15 min post SE onset, 30-50 Hz, 30-60 min post drug",** (** P < 0.01)
same,"Treatment effect on EEG power vs vehicle, significance","15 min post SE onset, 50-70 Hz, 0-15 min. post drug",** (** P < 0.01)
same,"Treatment effect on EEG power vs vehicle, significance","15 min post SE onset, 50-70 Hz, 1-2 hrs post drug",** (** P < 0.01)
same,"Treatment effect on EEG power vs vehicle, significance","15 min post SE onset, 50-70 Hz, 2-3 hrs post drug",ns
same,"Treatment effect on EEG power vs vehicle, significance","15 min post SE onset, 50-70 Hz, 3-5 hrs post drug",ns
same,"Treatment effect on EEG power vs vehicle, significance","15 min post SE onset, 50-70 Hz, 15-30 min post drug",** (** P < 0.01)
same,"Treatment effect on EEG power vs vehicle, significance","15 min post SE onset, 50-70 Hz, 30-60 min post drug",* (* P < 0.05)
same,"Treatment effect on EEG power vs vehicle, significance","15 min post SE onset, 70-96 Hz, 0-15 min. post drug",** (** P < 0.01)
same,"Treatment effect on EEG power vs vehicle, significance","15 min post SE onset, 70-96 Hz, 1-2 hrs post drug",** (** P < 0.01)
same,"Treatment effect on EEG power vs vehicle, significance","15 min post SE onset, 70-96 Hz, 2-3 hrs post drug",ns
same,"Treatment effect on EEG power vs vehicle, significance","15 min post SE onset, 70-96 Hz, 3-5 hrs post drug",ns
same,"Treatment effect on EEG power vs vehicle, significance","15 min post SE onset, 70-96 Hz, 15-30 min post drug",** (** P < 0.01)
same,"Treatment effect on EEG power vs vehicle, significance","15 min post SE onset, 70-96 Hz, 30-60 min post drug",* (* P < 0.05)
same,"Treatment effect on EEG power vs vehicle, significance","60 min post SE onset, 0-5 Hz, 0-15 min. post drug",*** (*** P < 0.001)
same,"Treatment effect on EEG power vs vehicle, significance","60 min post SE onset, 0-5 Hz, 1-2 hrs post drug",**** (**** P < 0.0001)
same,"Treatment effect on EEG power vs vehicle, significance","60 min post SE onset, 0-5 Hz, 2-3 hrs post drug",*** (*** P < 0.001)
same,"Treatment effect on EEG power vs vehicle, significance","60 min post SE onset, 0-5 Hz, 3-5 hrs post drug",** (** P < 0.01)
same,"Treatment effect on EEG power vs vehicle, significance","60 min post SE onset, 0-5 Hz, 15-30 min post drug",**** (**** P < 0.0001)
same,"Treatment effect on EEG power vs vehicle, significance","60 min post SE onset, 0-5 Hz, 30-60 min post drug",**** (**** P < 0.0001)
same,"Treatment effect on EEG power vs vehicle, significance","60 min post SE onset, 5-10 Hz, 0-15 min. post drug",**** (**** P < 0.0001)
same,"Treatment effect on EEG power vs vehicle, significance","60 min post SE onset, 5-10 Hz, 1-2 hrs post drug",*** (*** P < 0.001)
same,"Treatment effect on EEG power vs vehicle, significance","60 min post SE onset, 5-10 Hz, 2-3 hrs post drug",** (** P < 0.01)
same,"Treatment effect on EEG power vs vehicle, significance","60 min post SE onset, 5-10 Hz, 3-5 hrs post drug",ns
same,"Treatment effect on EEG power vs vehicle, significance","60 min post SE onset, 5-10 Hz, 15-30 min post drug",**** (**** P < 0.0001)
same,"Treatment effect on EEG power vs vehicle, significance","60 min post SE onset, 5-10 Hz, 30-60 min post drug",**** (**** P < 0.0001)
same,"Treatment effect on EEG power vs vehicle, significance","60 min post SE onset, 10-30 Hz, 0-15 min. post drug",* (* P < 0.05)
same,"Treatment effect on EEG power vs vehicle, significance","60 min post SE onset, 10-30 Hz, 1-2 hrs post drug",** (** P < 0.01)
same,"Treatment effect on EEG power vs vehicle, significance","60 min post SE onset, 10-30 Hz, 2-3 hrs post drug",* (* P < 0.05)
same,"Treatment effect on EEG power vs vehicle, significance","60 min post SE onset, 10-30 Hz, 3-5 hrs post drug",ns
